The test system of series [1] is blood CCR2+CD11b+ monocytes and regulatory T cells (Tregs). As to the kind of experiment: Blood immune cell populations of db/db mice, flow cytometry. It is filed as in vivo. As to conditions: whole blood. Here is the method:
(§1) Obese db/db mice were fed high-fat diets containing 0, 15, or 70 mg/kg diet rosiglitazone maleate (control, Ros^lo, and Ros^hi, respectively) with and without racemic ABA (100 mg/kg diet). On day 60 the percent of F4/80+CD11b+ in the stromal vascular fractions of abdominal white adipose tissue (Ab. WAT) (A) and subcutaneous WAT (B) were assessed by flow cytometry. The percent of CD11b+CCR2+ monocytes (C) and CD4+CD25+FoxP3+ Tregs (D) in blood were assessed in whole blood. The expressions of the M1 marker CCL17 (E) and peroxisome proliferator activated receptor γ (PPAR γ) (F) in Ab. WAT were calculated as a ratio to the housekeeping gene f3-actin. Data are represented as mean±standard error.
(§2) Mice (n=40) were fed one of six experimental diets: a control high-fat diet (control), a high-fat diet containing low dose rosiglitazone maleate (Ros^lo, 10 mg/kg diet), or a high-fat diet containing a high dose of rosiglitazone maleate (Ros^hi, 70 mg/kg diet), each with or without all racemic ABA (100 mg/kg, Sigma Aldrich, St. Louis, Mo.) for 60 days. […] Blood glucose levels were assessed with an ACCU-CHEK® Glucometer (Roche, Indianapolis, Ind.). An intraperitoneal glucose tolerance test (IPGTT, 1 g glucose/kg body weight) was conducted on fasted mice (12 h) for 0, 30, 90, and 180 minute time points and insulin levels were measured on day 54. […]
Background: In flow cytometry, cells or beads pass a laser one at a time.

Series [2] is described as follows: Intraperitoneal glucose tolerance test and fasting insulin in db/db mice. The format is in vivo. As to the method: Obese db/db mice were fed high-fat diets containing […] mg/kg diet rosiglitazone maleate (control, Ros^lo, and Ros^hi, respectively) with and without racemic ABA (100 mg/kg diet). On day 42 mice underwent an intraperitoneal glucose tolerance test (IPGTT) (A). Areas under the curve (B) were calculated for each treatment. On day 55 fasting insulin levels were measured for mice on each diet (C). Data are represented as mean±standard error.
Mice (n=40) were fed one of six experimental diets: a control high-fat diet (control), a high-fat diet containing low dose rosiglitazone maleate (Ros^lo, 10 mg/kg diet), or a high-fat diet containing a high dose of rosiglitazone maleate (Ros^hi, 70 mg/kg diet), each with or without all racemic ABA (100 mg/kg, Sigma Aldrich, St. Louis, Mo.) for 60 days. Mice were weighed and fasting (12 h) blood glucose levels were taken weekly. Blood glucose levels were assessed with an ACCU-CHEK® Glucometer (Roche, Indianapolis, Ind.). An intraperitoneal glucose tolerance test (IPGTT, 1 g glucose/kg body weight) was conducted on fasted mice (12 h) for 0, 30, 90, and 180 minute time points and insulin levels were measured on day 54. On day 60 mice were sacrificed by CO2 narcosis with secondary thoracotomy. Abdominal WAT, inguinal subcutaneous WAT, and liver were then excised and weighed. Abdominal and subcutaneous WAT were then digested and fractionated.

The conditions of series [3]: mice fed ABA at doses ranging from 100 to 800 mg/kg of diet [44]; cited from earlier work.
In the next series the test system is F4/80+CD11b+ macrophages. As to the kind of experiment: Macrophage infiltration into white adipose tissue of db/db mice, flow cytometry. The format is in vivo. As to conditions: day 60. As to the method:
as §1, §2

In series [4] the test system is retinoid X receptor (RXR). As to the kind of experiment: RXR luciferase reporter in transfected 3T3-L1 preadipocytes. The format is cell-based. As to conditions: ABA 10 μM with 9-cis retinoic acid 10 μM. As to the method: (§3) A pCMX.L-RXR or pCMX.RAR expression plasmid and a luciferase reporter plasmid were purified using Qiagen's Maxi kit (Valencia, Calif.). 3T3-L1 preadipocytes (American Type Culture Collection, Manassas, Va.) were grown in DMEM high glucose medium (Invitrogen, Carlsbad, Calif.) containing 10% fetal bovine serum (FBS). The cells cultured in 25 cm^2 flasks were co-transfected with 0.6 ug plasmid DNA and 1 ng of pRL reporter control plasmid per well using F-2 transfection reagents (Targeting Systems, Santee, Calif.) according to the manufacturer's protocol. After 24 hours, transfected cells were split trypsin and seeded into 96-well white plates at a concentration of 20,000 cells/wells. The transfected cells were then treated with 9-cis retinoic acid (0, 10 μM; Sigma), or retinoic acid (RA, 10 μM; Sigma), with ABA (10 μM; Sigma) Transfected cells were harvested in reporter lysis reagent. Luciferase activity, normalized to pRL activity in the cell extracts was determined by using the dual luciferase reporter assay system (Promega, Madison, Wis.) in a Modulus 96-well plate reader (Turner Biosystems, Sunnyvale, Calif.). Relative luciferase activity (RLA) was calculated as a ratio of the chemiluminescence 10 seconds after the Luciferase Assay Reagent II (Promega) was added over the chemiluminescence 10 seconds after the Stop&Glo Reagent (Promega).
(A reporter such as luciferase makes a cellular process visible.)

In series [5] the test system is human aorta endothelial cells (HAECs). The experiment in a line: Nitric oxide assessment in HAECs. It is filed as cell-based. As to conditions: 15 min treatment, beginning at 0.1 uM ABA. As to the method:
Confluent human aorta endothelial cells (HAECs) were serum-starved using HBSS buffer for 30 min, then stimulated with various concentration of ABA and Forskolin (1 uM) for 5 min, after removing supernatant, cells were lysed with 0.1 M HCL to measure non-acetylated cAMP using a commercially available kit (Cayman chemical) following the manufacturer's instructions. Results (pmol/mL) were obtained from four independent experiments. For nitric oxide (NO), confluent HAECs were serum-starved for 30 min by using HBSS buffer, then treated with ABA for 15 min. Supernatant was used to measure NO using an fluorescent kit.

The nature of series [6]: Systolic blood pressure in ApoE-deficient mice. The format is in vivo.
In series [7] the test system is retinoic acid receptor (RAR). As to the kind of experiment: RAR luciferase reporter in transfected 3T3-L1 preadipocytes. It is filed as cell-based. As to conditions: ABA 10 μM with retinoic acid 10 μM. Here is the method:
as §3

For the compound `CC1=CC(=O)CC(C)(C)C1(O)/C=C/C(C)=C\C(=O)O` (racemic) [ABA, abscisic acid], the “blood CCR2+CD11b+ monocyte levels” value in series [1] is “mitigated”. Besides, the “percentages of blood regulatory T cells (Tregs)” value in series [1] (independently of Ros) was “increased”. The “glucose tolerance (IPGTT)” value in series [2] (day 42, relative to the control diet) is listed as “significantly improved”. Further, the fasting insulin levels result in series [2] (dietary ABA 100 mg/kg diet, P=0.04) was “significantly reduced”. The side-effects entry in series [3] is listed as “no detectable side-effects”. Moreover, the “ATM infiltration in SCAT” value in the series on F4/80+CD11b+ macrophages (db/db mice fed the control and Ros^lo diets) is “significantly reduced”. Moreover, the “macrophage (ATM) infiltration into Ab. WAT” value in the series with F4/80+CD11b+ macrophages (db/db mice, ABA 100 mg/kg diet, Ros^lo, or both, relative to the control diet) is reported as “little effect”. In series [4], the “activity of RXR ligands” value is on record as “synergistically enhances”. Also, the nitric oxide production result in series [5] is “significantly increased”. In addition, in series [6], the systolic blood pressure entry was “lowers”. Besides, the “activity of RAR ligands” value in series [7] is given as “synergistically enhances”.
